This is an account of results in patent publication US4826840A, “Cerebral protecting agent” (Taiyo Pharmaceutical Industry Co., Ltd., priority 1987, dated 1989).

Where a name gives a salt, the structure may show the parent alone.

One data set in a line: Measurement of LD50. Conditions: mouse, in vivo. An excerpt:
ddY male mice having been preliminary bred in the same manner as Example 7 were orally given the test compounds to determine LD50.

Data set [1] can be described thus: Protective effect against KCN death. Format: in vivo, ddY male mice.
The subject of data set [2] is common carotid artery blood flow. Briefly: Effect on common carotid artery blood flow. Format: in vivo, Male adult dogs. As to conditions: for Increase in CCBF (Δ%): n = 3; for Increase of CCBF (in words): i.v., anesthetized dogs. The procedure:
(§1) Male adult dogs (weight: […]) were used for the experiment after they were preliminary bred in the metal cage for 1 week in a breeding room in which the temperature was controlled at 22±2° C. and the humidity was at 55±10%. They were given pelleted diet (CS, product of Oriental Yeast Co.) and water ad lib. Prior to submitting the animals to the experiment, they were fasted for 21-23 hours.
(§2) The dogs were anesthetized with sodium pentobarbital and probes for measuring the blood flows were fitted on the right vertebral artery and right common carotid artery. After measuring the control blood flows, the test compounds dissolved in physiological saline were intravenously administered. The vertebral artery blood flow (VBF) and the common carotid artery flow (CCBF) were measured to determine the increments of the blood flow resulting from administration of the test compounds.

Data set [3] can be described thus: Effect on brain ischemia model by MgCl2. Format: in vivo, ddY male mice. Conditions: for Survival Time: 2 h before saturated MgCl2 i.v.; for Prolongation of survival time (in words): doses of about 40 mg/kg, oral. As to the method:
ddY male mice (age: 7 weeks) having been preliminary bred in the same manner as in Example 7 were fasted and orally administered with the test compounds dissolved in 0.3%methylcellulose solution. Two (2) hours later, 0.05 ml of saturated solution of MgCl2 was intravenously administered rapidly through the caudal vein. The […] was determined as the period of time until final gasping.

Data set [4] in a line: Effect on bicuculline convulsion. Conditions: 1 h before bicuculline 1.75 mg/kg i.v.; for Inhibition of the tonic extension (in words): oral. Format: in vivo, Wister male rats. The procedure:
Each test compound was dissolved in 0.5% methylcellulose solution and orally administered to each mouse, and 1 hour later 1.75 mg/kg of bicuculline was given intravenously through caudal vein over the period of 15 seconds. Then, the tonic hindpaw extension was observed.

The subject of data set [5] is vertebral artery blood flow. The data set is described as follows: Effect on vertebral artery blood flow. Format: in vivo, Male adult dogs. As to conditions: for Increase in VBF (Δ%): n = 3; for Increase of VBF (in words): i.v., anesthetized dogs. The procedure:
as §1, §2

Setting [6] is: 40 mg/kg p.o., 2 h before KCN 2.1 mg/kg i.v.

With `CCCCC1=Cc2cc3c(cc2C1N1CCCN(CCC)CC1)OCO3` (centres unmarked) [Compound 4b], the LD50 (commonly the dose expected to kill half of the subjects tested) in the data set “Measurement of LD50” (oral, ddY male mice) was found to be 373 mg/kg. Besides, in data set [1] (setting [6]), the “Rate of Survival (%)” value is 56% and the “Survived Animals/Tested Animals” value is listed as 5/9.

On to `CCCCC1=C(c2ccccc2)c2cc3c(cc2C1N1CCN(CCC)CC1)OCO3` (centres unmarked) [Compound 6b], for which the LD50 in “Measurement of LD50” (oral, ddY male mice) is 608 mg/kg. In addition, in data set [1] (setting [6]), the “Rate of Survival (%)” value is recorded as 30% and the “Survived Animals/Tested Animals” value is on record as 3/10.

`CCCCC1=C(C)c2cc3c(cc2C1N1CCN(CCC)CC1)OCO3` (centres unmarked) [Compound 5b] had an LD50 in “Measurement of LD50” (oral, ddY male mice) of 510 mg/kg. In data set [1] (setting [6]), the “Rate of Survival (%)” value is listed as 56% and the “Survived Animals/Tested Animals” value is listed as 5/9.

In the case of `CCCCC1=Cc2cc3c(cc2C1N1CCN(CCCC)CC1)OCO3` (centres unmarked) [Compound 3b], the LD50 in “Measurement of LD50” (oral, ddY male mice) amounted to 430 mg/kg. In addition, in data set [1] (setting [6]), the “Rate of Survival (%)” value is 33% and the “Survived Animals/Tested Animals” value is 3/9.

For the molecule `CCCCC1=Cc2cc3c(cc2C1N1CCN(C)CC1)OCO3` (centres unmarked) [Compound 1c, Dihydrochloride of 1-(4-methylpiperazinyl)-2-n-butyl-5,6-methylenedioxyindene], the “Increase in CCBF (Δ%)” value in data set [2] (0.3 mg/kg i.v., 1 min) is 2.4 ± 1.3 Δ%; in data set [2] (0.3 mg/kg i.v., 2 min), 4.5 ± 0.7 Δ%; in data set [2] (0.3 mg/kg i.v., 3 min), 4.5 ± 0.7 Δ%; in data set [2] (0.3 mg/kg i.v., 4 min) it was 4.5 ± 0.7 Δ%; in data set [2] (0.3 mg/kg i.v., 5 min), 0.8 ± 2.7 Δ%; in data set [2] (0.3 mg/kg i.v., 10 min), 0 ± 0 Δ%. Also, the “Increase in CCBF (Δ%)” value in data set [2] (0.3 mg/kg i.v., 15 min) was 2.2 ± 2.8 Δ%; in data set [2] (1 mg/kg i.v., 1 min) it was 5.2 ± 0.8 Δ%; in data set [2] (1 mg/kg i.v., 2 min) it was 11.9 ± 4.7 Δ%; in data set [2] (1 mg/kg i.v., 3 min), 13.9 ± 7.4 Δ%; in data set [2] (1 mg/kg i.v., 4 min) it was 12.8 ± 7.2 Δ%; in data set [2] (1 mg/kg i.v., 5 min), 6.4 ± 3.6 Δ%. The “Increase in CCBF (Δ%)” value in data set [2] (1 mg/kg i.v., 10 min) is reported as 1.1 ± 1.1 Δ%; in data set [2] (1 mg/kg i.v., 15 min), 3.6 ± 2.0 Δ%; in data set [2] (3 mg/kg i.v., 1 min) it was 9.5 ± 2.7 Δ%; in data set [2] (3 mg/kg i.v., 2 min) it was 19.0 ± 16.1 Δ%; in data set [2] (3 mg/kg i.v., 3 min), 14.1 ± 18.0 Δ%; in data set [2] (3 mg/kg i.v., 4 min), 12.7 ± 14.2 Δ%. Also, the “Increase in CCBF (Δ%)” value was 9.3 ± 10.8 Δ% in data set [2] (3 mg/kg i.v., 5 min); 6.1 ± 5.8 Δ% in data set [2] (3 mg/kg i.v., 10 min); 4.9 ± 5.0 Δ% in data set [2] (3 mg/kg i.v., 15 min). The “Increase of CCBF (in words)” value in data set [2] was “increased VBF and CCBF dose-dependently”. Further, the 50% lethal dose (LD50) in “Measurement of LD50” (po) worked out at 368 mg/kg. The figures for the “Survival Time” value in data set [3] (40 mg/kg oral) and in data set [3] (80 mg/kg oral) were 28.8 ± 0.6 s and 32.3 ± 0.6 s, respectively. For the same molecule, the “Prolongation of survival time (in words)” value in data set [3] is on record as “significant prolongation of survival time dose-dependency”. For the same molecule, the “Animals Convulsed/Animals Tested” value in data set [4] (1 mg/kg oral) is 8/10; in data set [4] (5 mg/kg oral) it was 5/10; in data set [4] (10 mg/kg oral), 1/10; in data set [4] (15 mg/kg oral), 0/10. For the same molecule, the “Rate of Convulsion Inhibition (%)” value turned out to be 20% in data set [4] (1 mg/kg oral), 50% in data set [4] (5 mg/kg oral), 90% in data set [4] (10 mg/kg oral) and 100% in data set [4] (15 mg/kg oral). Moreover, the “Inhibition of the tonic extension (in words)” value in data set [4] is on record as “inhibited the tonic extension dose-dependency”. The “Increase in VBF (Δ%)” value in data set [5] (0.3 mg/kg i.v., 1 min) is reported as 6.3 ± 6.3 Δ%; in data set [5] (0.3 mg/kg i.v., 2 min) it was 19.7 ± 9.0 Δ%; in data set [5] (0.3 mg/kg i.v., 3 min), 32.2 ± 15.8 Δ%; in data set [5] (0.3 mg/kg i.v., 4 min) it was 26.5 ± 13.2 Δ%; in data set [5] (0.3 mg/kg i.v., 5 min) it was 16.1 ± 7.9 Δ%; in data set [5] (0.3 mg/kg i.v., 10 min) it was 12.5 ± 12.5 Δ%. Further, the “Increase in VBF (Δ%)” value in data set [5] (0.3 mg/kg i.v., 15 min) was 15.5 ± 11.3 Δ%; in data set [5] (1 mg/kg i.v., 1 min), 9.6 ± 5.1 Δ%; in data set [5] (1 mg/kg i.v., 2 min), 59.6 ± 33.3 Δ%; in data set [5] (1 mg/kg i.v., 3 min), 74.5 ± 36.3 Δ%; in data set [5] (1 mg/kg i.v., 4 min), 68.9 ± 39.3 Δ%; in data set [5] (1 mg/kg i.v., 5 min) it was 39.2 ± 27.5 Δ%. The “Increase in VBF (Δ%)” value in data set [5] (1 mg/kg i.v., 10 min) is given as 14.0 ± 8.5 Δ%; in data set [5] (1 mg/kg i.v., 15 min), 11.7 ± 9.0 Δ%; in data set [5] (3 mg/kg i.v., 1 min) it was 44.2 ± 16.3 Δ%; in data set [5] (3 mg/kg i.v., 2 min), 154.7 ± 56.5 Δ%; in data set [5] (3 mg/kg i.v., 3 min), 173.7 ± 61.6 Δ%; in data set [5] (3 mg/kg i.v., 4 min) it was 143.6 ± 54.0 Δ%. Besides, the “Increase in VBF (Δ%)” value in data set [5] (3 mg/kg i.v., 5 min) is on record as 111.4 ± 49.6 Δ%; in data set [5] (3 mg/kg i.v., 10 min) it was 65.8 ± 30.5 Δ%; in data set [5] (3 mg/kg i.v., 15 min) it was 37.5 ± 18.4 Δ%. Further, the “Increase of VBF (in words)” value in data set [5] is “increased VBF and CCBF dose-dependently”. In addition, the “Rate of Survival (%)” value in data set [1] (mouse, in vivo) amounted to 78%. In addition, the “Survived Animals/Tested Animals” value in data set [1] (mouse, in vivo) is on record as 7/9.

In the case of `CCOC(=O)C1=C[C@]2(CC)CCCN3CCc4c(n1c1ccccc41)[C@@H]32` [vinpocetine, reference compound], the “Survival Time” value in data set [3] (80 mg/kg oral) was 22.5 ± 1.1 s.

With `COC(=O)C1=C(C)NC(C)=C(C(=O)OCCN(C)Cc2ccccc2)C1c1cccc([N+](=O)[O-])c1` (centres unmarked) [nicardipine, reference compound], the “Survival Time” value in data set [3] (80 mg/kg oral) amounted to 24.3 ± 1.0 s.

Turning to `CCCCC1=Cc2cc3c(cc2C1N1CCN(CCC)CC1)OCO3` (centres unmarked) [Compound 2b], the “Increase in CCBF (Δ%)” value is reported as 1.5 ± 1.5 Δ% in data set [2] (1 mg/kg i.v., 1 min); 5.2 ± 1.6 Δ% in data set [2] (1 mg/kg i.v., 2 min); 2.4 ± 1.2 Δ% in data set [2] (1 mg/kg i.v., 3 min); 1.4 ± 1.4 Δ% in data set [2] (1 mg/kg i.v., 4 min); -1.0 ± 1.0 Δ% in data set [2] (1 mg/kg i.v., 5 min); 7.1 ± 5.6 Δ% in data set [2] (3 mg/kg i.v., 1 min). Also, the “Increase in CCBF (Δ%)” value in data set [2] (3 mg/kg i.v., 2 min) is on record as 9.8 ± 7.4 Δ%; in data set [2] (3 mg/kg i.v., 3 min) it was 4.6 ± 4.8 Δ%; in data set [2] (3 mg/kg i.v., 4 min) it was -1.8 ± 4.3 Δ%; in data set [2] (3 mg/kg i.v., 5 min) it was -5.9 ± 2.1 Δ%. The “Increase of CCBF (in words)” value in data set [2] was “increased VBF and CCBF dose-dependently”. The molecule further showed a median lethal dose (LD50) in the data set “Measurement of LD50” (po) of 450 mg/kg. Moreover, the entries for the “Survival Time” value in data set [3] (40 mg/kg oral) and in data set [3] (80 mg/kg oral) were 28.3 ± 1.5 s and 32.4 ± 1.5 s, respectively. The “Prolongation of survival time (in words)” value in data set [3] was “significant prolongation of survival time dose-dependency”. Moreover, the “Animals Convulsed/Animals Tested” value in data set [4] (5 mg/kg oral) was 6/10; in data set [4] (10 mg/kg oral), 5/10; in data set [4] (15 mg/kg oral), 2/10; in data set [4] (20 mg/kg oral) it was 0/10. Besides, the “Rate of Convulsion Inhibition (%)” value in data set [4] (5 mg/kg oral) worked out at 40%; in data set [4] (10 mg/kg oral) it was 50%; in data set [4] (15 mg/kg oral), 80%; in data set [4] (20 mg/kg oral), 100%. Moreover, the “Inhibition of the tonic extension (in words)” value in data set [4] is “inhibited the tonic extension dose-dependency”. In addition, the “Increase in VBF (Δ%)” value in data set [5] (1 mg/kg i.v., 1 min) was 7.2 ± 4.9 Δ%; in data set [5] (1 mg/kg i.v., 2 min), 18.6 ± 7.4 Δ%; in data set [5] (1 mg/kg i.v., 3 min), 24.6 ± 8.3 Δ%; in data set [5] (1 mg/kg i.v., 4 min) it was 17.6 ± 8.8 Δ%; in data set [5] (1 mg/kg i.v., 5 min), 3.7 ± 3.7 Δ%; in data set [5] (3 mg/kg i.v., 1 min), 43.1 ± 28.5 Δ%. Further, the “Increase in VBF (Δ%)” value is 74.3 ± 23.3 Δ% in data set [5] (3 mg/kg i.v., 2 min); 78.2 ± 28.2 Δ% in data set [5] (3 mg/kg i.v., 3 min); 40.5 ± 21.1 Δ% in data set [5] (3 mg/kg i.v., 4 min); 18.5 ± 12.7 Δ% in data set [5] (3 mg/kg i.v., 5 min). Also, the “Increase of VBF (in words)” value in data set [5] is “increased VBF and CCBF dose-dependently”. Further, in data set [1] (mouse, in vivo), the “Rate of Survival (%)” value is reported as 50%. Further, the “Survived Animals/Tested Animals” value in data set [1] (mouse, in vivo) was 5/10.
